Experiments:
[1] = molecular target: T1, aldose reductase (Rattus norvegicus, UniProt P07943); assay: X-ray induced irreversible inhibition of aldose reductase; type: biochemical
Protocol: (§1) Lens aldose reductase used for test purposes was extracted and assayed by the technique reported by Hayman and Kinoshita (see J.Biol. Chem. 240, 877-882 (1965)). The extract was usually adjusted to pH 7.0 and lyophilized. This product is stable indefinitely in the cold and provides particularly reliable assay results since day to day rates are reproducible.
X-ray irradiation was performed with a General Electric Maximum-100 type X-ray machine using the following settings: 100 kVp, 5 ma, 3 mm Al added, HUL=2.6 mm Al, calibrated output=175 R/min. at 15 cm. Two ml of solution with components at the same concentrations used in photolysis experiments were X-rayed in 50 mm diameter open petri dishes placed at 15.9 cm from the X-ray source. The dosages were varied from 5 to 100 Rads, requiring 1, 2, 3, 4, 34 and 51 seconds exposure, respectively.

[2] = system: cataract formation in rat lenses; assay: Cataract formation in rat lenses in organ culture: X-ray irradiated; type: cell-based; settings: 175 Rads X-rays, galactose, eight days
Protocol: (§2) Organ culture was performed by a modification of the method of Kinoshita et al (see Biochem. Biophys. Acta 158, 472-475 (1968)) with a modified TC 199 medium using 50-75 gm Sprague-Dawly male rats, care being taken to avoid contamination of the system. Fresh rat lenses were treated with Asub-Q in the manner hereinafter described and incubated in the presence of fructose and in the presence of galactose, in order to determine the effect of the Asub-Q. The Asub-Q treatment involved the following:
This experiment was similar to the photoirradiation experiment except that the lenses were irradiated with 175 Rads of X-rays in place of light. […] Lenses incubated with galactose would be completely opaque (V).

[3] = system: cataract formation in rat lenses; assay: Cataract formation in rat lenses in organ culture: light irradiated; type: cell-based
Protocol: as §2
(a) rat lenses were incubated in the dark in an incubation medium containing Asub-Q for two hours to permit the drug to diffuse into the lens;
(b) the lenses were then placed into a fresh medium and irradiated for 10 minutes for complete inhibition of aldose reductase;
(c) the lenses were then placed into a fresh medium for […] with four changes in medium in the first 24 hours to permit non-covalently bound drug to diffuse out; and
(d) the lenses were then incubated in a medium containing fructose or galactose.
In a typical experiment four groups of 20 lens, four to a Petri dish, were used. The first group was supplemented with fructose (30 mM); the second, with galactose (30 mM); the third, with fructose (30 mM) and treated with Asub-Q (0.145 mM); and the fourth, with galactose (30 mM) and treated with Asub-Q ([…]). The lens were photographed with color film on a red background and evaluated on a O to V scale with O assigned to a clear lens and V to a lens with a totally opaque cataract. The procedure for treatment and photolysis of the lens was described above.
The number outside the parenthesis is the status of the lenses: O to V. The number inside the parenthesis is the number of the lenses.

[4] = molecular target: T2, aldose reductase in a crude extract of rat lens (Rattus norvegicus, UniProt P07943); assay: Reversible inhibition of aldose reductase (Ki and type of inhibition); type: biochemical
T2 construct: aldose reductase in a crude extract of rat lens; from tissue; host or cells: rat lens (crude extract, usually lyophilized)
Protocol: as §1
The Ki and type of inhibition of aldose reductase by Asub-Q (0.274 mM) was determined at pH 6.3 in 0.1M phosphate buffer using a saturating concentration of NADPH (121 uM). The results are plotted in FIG. 6.

[5] = molecular target: T1, aldose reductase; assay: Irreversible inhibition of aldose reductase induced by photoirradiation (350 nm); type: biochemical
Protocol: as §1
Photolysis of Asub-Q and aldose reductase was studied in the presence and absence of saturating substrate concentrations (0.274 mM glyceraldehyde, and 0.111 mM NADPH) in 0.1M phosphate buffer, pH 6.3. Photolysis was performed in 3 ml quartz spectrophotometer cuvettes in a Rayonet photochemical reactor with a 350 nm maxima light source. The enzyme was separated from the non-covalently bound inhibitor by passing the photolyzed solution through a Sephadex G-25 column as described above. The results are plotted in FIG. 7. […] The enzyme photolyzed with inhibitor in the presence or absence of substrate is 80% inhibited after 10 minutes.

[6] = system: cataract formation in rats; assay: Cataract formation in galactose-fed rats: light irradiated; type: in vivo, rat
Protocol: Approximately 5-10 μl of Asub-Q (0.65 mM) dissolved in DMSO was injected into the aqueous humour of the right eye of each of three 75 g. rats. After 1 hour, when the drug had diffused into the lens, the rat was irradiated for 30 minutes in a Rayonet Photochemical Reactor. The rats were fed ad-libinum with a mix of 1:1 chow:galactose. The control eyes (left eye) developed detectable cataracts after 3 days.

[7] = pH 6.3, 0.1M phosphate buffer, NADPH 121 uM

## N-(2-nitro-4-azidophenyl) hexylenediamine-N-(2'-O-quercitrin) [Asub-Q]
[1]; 20 Rads irradiation or above
  loss of enzyme activity: approximately two thirds
[1]; mixture of Asub-Q and rat lens extract irradiated with X-rays
  irreversible inhibition of aldose reductase: extensively irreversibly inhibited
[2]
  number of lenses per cataract status: 5 clear lenses (O) and 6 with a slight cataract (I)
[3]; day 35
  cataract progression vs fructose control: not nearly as advanced
[3]; lenses containing Asub-Q, after three days
  lens clarity: remained clear
[3]; overall, organ culture
  resistance to cataract formation vs fructose control lenses: at least as impervious to cataract formation as control lenses that were incubated with fructose
[4]; crude extract of rat lens
  Ki compared with quercitrin: very similar to quercitrin
[4]; [7]
  Ki: 0.48 µM
  type of inhibition: noncompetitive inhibitor
[4]; summary statement
  reversible inhibitor activity compared with quercitrin: about the same as quercitrin
[4]; without photolysis
  reversible inhibition of aldose reductase: reversibly inhibits aldose reductase
[5]; 10 minutes photolysis, 350 nm, in presence or absence of substrate, pH 6.3
  inhibition of enzyme photolyzed with inhibitor: 80%
[5]; light maximum at 350 nm, chromatographic removal of small molecules
  type of inhibition after irradiation (kinetic analysis): both specific irreversible inhibition and non-specifically bound reversible (soluble immobilized inhibitor) inhibition occur
[5]; one minute photolysis, 350 nm
  irreversible inhibition: roughly 40%
[5]; photo- or X-ray irradiation, summary statement
  irreversible inhibition on irradiation: photo- or X-ray sensitive irreversible affinity inhibitor for aldose reductase
[6]; 5-10 μl of 0.65 mM in aqueous humour, light 30 minutes, 1:1 chow:galactose, 7 days
  cataract in treated right eyes: no cataract was observed
[6]; repeated on thirty rats
  cataract formation, repeat experiment: equivalent results
